Source: patent US7632814B2, “HYD1 peptides as anti-cancer agents” (University of South Florida, priority 2006, dated 2009)
“Also recorded” adds a separate entry of the source. Where no end group is shown, it is not given here. [ ]: non-standard residue; d: D form.

How the values were obtained:
8226 MM = assay: SCID-Hu in vivo model, tumor burden by circulating lambda levels; design: species or system SCID mice
Procedure: 8226 cells (50,000 cells per mice) were engrafted into implanted human bone for 28 days. Following tumor engraftment, mice were treated with either 2 mg/Kg HYD1 or HYD1S (I.P. daily). Appropriate mice were treated with 1.5 mg/kg melphalan (mel) on day 29 and day […] (I.P. injections). Tumor burden was measured by lambda levels on day 28 and day 35 (n=3 mice per group).
Tumor burden was measured by circulating lambda levels. On day 28 (before drug treatment) measurements were recorded for each individual mouse and subsequent values obtained weekly are represented as a ratio of day 28 (day X/day 28). N=4 mice per group. HYD1 was administered I.P. at 2 mg/kg daily for 14 days (starting day 28). Melphalan was administered I.P. at 1.5 mg/kg on day 29 and 32.
SCID-Hu model. […] At 28 days, baseline tumor burden was quantified in the sera using either a lambda (8226) or kappa (H929) ELISA kit per manufacture instructions (Bethyl, Montgomery, Tex.) and mice were randomized into treatment groups. […] Tumor burden was assessed weekly by measuring kappa or lambda levels in the sera.
The SCID-Hu model consists of implanting human fetal bone into the mammary mouse fat pad of SCID mice. […] Human paraprotein can be measured in the mouse sera and levels represent a good marker for evaluating tumor burden and response to chemotherapy. […]

H929 cells [1] = assay: Detection of apoptosis, annexin V staining and FACS, suspension culture; type: cell-based
Procedure: FIG. 17 is a graph showing that HYD1 induces apoptosis as a single agent in 8226 and H929 cells cultured in suspension. 8226 and H929 cells were either treated with varying concentrations of HYD1 or vehicle control (equal volume sterile double distilled water) for 24 hours and apoptotic cells were detected by FACS analysis of annexin V positive cells. HYD1 specific apoptosis equals cell death due to peptide minus any apoptosis detected in control cells.
200 μM ZVAD-FMK was added to H929 cells for 30 minutes prior to the addition of either 75 μg/ml HYD1S or 15 μM Melphalan. Apoptosis was measured 24 hours after drug treatment by annexin/PI staining and apoptotic cells were detected by FACS analysis. Three independent experiments were performed and shown is a representative experiment.
Detection of Apoptosis. […] Blood, 1999; 93:1658-1667). The assay was performed in triplicate and 3 independent experiments were performed. Caspase 3 and 8 activity was measured at 6 and 24 hrs post peptide treatment per manufactures' instructions (BD Biosciences, San Jose, Calif.). The caspase assays were performed in triplicate and repeated twice.
Myeloma cells were plated at a density of 400,000 cells per ml in a 24 well plate. Cells were treated with the indicated dose of the peptide for 24 hours. Following 24 hrs of peptide exposure, apoptotic cells were detected using Annexin V staining and FACS analysis. Ten thousand events were analyzed by flow cytometry (Becton Dickinson, San Jose, Calif.). Experiments were performed in triplicate and repeated twice. Shown is a representative figure.

H929 cells [2] = assay: Cell adhesion to fibronectin (crystal violet staining); type: cell-based; details: varying concentrations, 30 minutes pre-incubation, 2 hours adhesion
Procedure: FIGS. 30A and 30B are graphs showing that HYD1 but not the scrambled derivative HYD1S inhibited cell adhesion of both 8226 and H929 cells to FN. Varying concentrations of either HYD1, HYD1S, or a 1:100 dilution of either α4β1 or α5β1 integrin functional blocking antibodies was added to either (FIG. 30A) 8226 cell or (FIG. 30B) H929 cells for 30 minutes prior to adding cells to either FN or BSA coated wells. Cells were allowed to adhere for 2 hours and adherent cells were measured by crystal violet staining at 540 nm. Shown is the mean and standard deviation of a representative experiment performed in quadruplicate. Three independent experiments were performed and similar results were obtained.
Quantification of cell adhesion to fibronectin. Briefly, 8226 or H929 myeloma cells were pre-incubated with varying concentrations of either HYD1 or the scrambled peptide (HYD1S) for 30 minutes prior to allowing cells to attach to FN for two hours. Cell adhesion was detected by crystal violet staining as previously described (Damiano J S et al. Blood, 1999; 93:1658-1667; Hazlehurst L A et al. Oncogene, 2000; 19:4319-4327).

[3] = tested on: phospho-Pyk2 in 8226 cells; assay: Phospho-Pyk2 levels (immunoblot); type: cell-based

Substance: kikmviswkg ([dK][dI][dK][dM][dV][dI][dS][dW][dK]G) [HYD1]
- tumor burden (lambda levels), combination with melphalan (8226 MM; 8226, 2 mg/kg HYD1 I.P. daily with 1.5 mg/kg melphalan I.P.): greatest reduction in tumor burden; also recorded: enhances melphalan induced cell death
- tumor burden (circulating lambda levels, day X/day 28), single agent (8226 MM; 8226, 2 mg/kg I.P. daily for 14 days starting day 28): antitumor activity was detected; also recorded: reduces 8226 MM growth in vivo
- protection from induced cell death by pan caspase inhibitor ZVAD-FMK (H929 cells [1]; H929 cells, 200 μM ZVAD-FMK 30 minutes prior, apoptosis at 24 hours, annexin/PI): only marginally protected
- annexin V positive cells following 6 hours of treatment (H929 cells [1]; H929 cells, 6 hours): can be detected
- induction of annexin V positive cells (H929 cells [1]; H929 cells, suspension culture, single agent, 24 hours): dose dependent induction of annexin V positive cells
- melphalan-induced apoptosis in cells cultured in suspension (H929 cells [1]; H929 cells, suspension, peptide with melphalan): increased melphalan-induced apoptosis
- sensitivity to HYD1 treatment, H929 compared to 8226 cells (H929 cells [1]; suspension culture): H929 cells are more sensitive
- blocking of adhesion of H929 cells to the extracellular matrix FN (H929 cells [2]): blocks adhesion of 8226 and H929 cells to the extracellular matrix FN in a dose dependent manner
- phospho-Pyk2 levels [3]: decreased levels of phospho-Pyk2
